Measured values published in patent publication US20210300939A1, “Single Molecule Compounds Providing Multi-Target Inhibition of BTK and Other Proteins and Methods of Use Thereof” (SignalRx Pharmaceuticals, Inc., priority 2018, published 2021).

Experiments:
breast cancer stem cells = conditions: women with breast tumors with high levels of HER2 protein; decreased from 11%; cited from earlier work
[1] = test system: Human mantle cell lymphoma cell lines; assay: Cell viability, mantle cell lymphoma cell lines (overall conclusion); assay type: cell-based; conditions: in vitro, 48 hours
Protocol: (§1) The results of this experiment are shown in FIGS. 1A-1C, and in Table 7 below. Human mantle cell lymphoma cell lines were grown in 96 well plates with 5000 cells per well in RPMI 1640 media supplemented with 10% fetal bovine serum. Cells were treated for 48 hours with a concentration range of each compound from 50 nM to 50 uM. Cell viability a measure of viable cell numbers was determined using a Celltiter-Glo^R reagent for each concentration in order to construct an IC50 curve for each compound in each cell line.

Mino cells [2] = assay: Cell viability (Celltiter-Glo), Mino; assay type: cell-based; conditions: Homo sapiens, 48 hours
Protocol: as §1

[3] = test system: pBTK(Y223) in JeKo and Mino cells; assay: Western blot, phosphorylation of BTK at Tyr223 in anti-IgM stimulated cells; assay type: cell-based, human; conditions: for Suppression of pBTK(Y223): JeKo cells stimulated with F(ab′) and anti-human IgM, various concentrations, FIG. 3B; for Suppression of pBTK (Tyr223): anti-IgM stimulated JeKo and Mino cells, FIGS. 2A-2D
pBTK in JeKo cells = assay: Washout Western blot for pBTK in IgM-stimulated JeKo cells; assay type: cell-based, human; conditions: 5 μM or 1 μM for 3 hours, washed with PBS three times, 4 hours recovery
JeKo-1 cells [4] = assay: Cell viability (Celltiter-Glo), JeKo-1; assay type: cell-based; conditions: Homo sapiens, 48 hours
Protocol: as §1

pAKT in JeKo cells = assay: Washout Western blot for pAKT in IgM-stimulated JeKo cells; assay type: cell-based, human; conditions: 5 μM or 1 μM for 3 hours, washed with PBS three times, 4 hours recovery
[5] = test system: pAKT(S473) in JeKo and Mino cells; assay: Western blot, phosphorylation of AKT at Ser 473 in anti-IgM stimulated cells; assay type: cell-based, human; conditions: for Suppression of pAKT: JeKo cells stimulated with F(ab′) and anti-human IgM, various concentrations, FIG. 3B; for Suppression of pAKT (Ser 473): anti-IgM stimulated JeKo and Mino cells, FIGS. 2A-2D
Protocol: Phosphorylation of BTK at Tyr223 and AKT at Ser 473 were determined by Western blot analysis. The results are shown in FIGS. 2A-2B (JeKo cells) and FIGS. 2C-2D (Mino cells). Blots were reprobed for total BTK, AKT, and β-actin.

Granta519 cells = assay: Cell viability (Celltiter-Glo), Granta519; assay type: cell-based; conditions: Homo sapiens, Granta-519, 48 hours
Protocol: as §1

PI3K δ = target: T1, PI3K δ (Homo sapiens, UniProt O00329); assay: PI3K delta inhibition (Thermo Fisher Scientific); assay type: biochemical; conditions: 10-point curve; read-out: Target IC50 PI3K δ
T1 construct: purchased Thermo Fisher Scientific-Biosciences Life Sciences Solutions, Madison, Wis; (contract assay)
T1 sequence (O00329 whole entry): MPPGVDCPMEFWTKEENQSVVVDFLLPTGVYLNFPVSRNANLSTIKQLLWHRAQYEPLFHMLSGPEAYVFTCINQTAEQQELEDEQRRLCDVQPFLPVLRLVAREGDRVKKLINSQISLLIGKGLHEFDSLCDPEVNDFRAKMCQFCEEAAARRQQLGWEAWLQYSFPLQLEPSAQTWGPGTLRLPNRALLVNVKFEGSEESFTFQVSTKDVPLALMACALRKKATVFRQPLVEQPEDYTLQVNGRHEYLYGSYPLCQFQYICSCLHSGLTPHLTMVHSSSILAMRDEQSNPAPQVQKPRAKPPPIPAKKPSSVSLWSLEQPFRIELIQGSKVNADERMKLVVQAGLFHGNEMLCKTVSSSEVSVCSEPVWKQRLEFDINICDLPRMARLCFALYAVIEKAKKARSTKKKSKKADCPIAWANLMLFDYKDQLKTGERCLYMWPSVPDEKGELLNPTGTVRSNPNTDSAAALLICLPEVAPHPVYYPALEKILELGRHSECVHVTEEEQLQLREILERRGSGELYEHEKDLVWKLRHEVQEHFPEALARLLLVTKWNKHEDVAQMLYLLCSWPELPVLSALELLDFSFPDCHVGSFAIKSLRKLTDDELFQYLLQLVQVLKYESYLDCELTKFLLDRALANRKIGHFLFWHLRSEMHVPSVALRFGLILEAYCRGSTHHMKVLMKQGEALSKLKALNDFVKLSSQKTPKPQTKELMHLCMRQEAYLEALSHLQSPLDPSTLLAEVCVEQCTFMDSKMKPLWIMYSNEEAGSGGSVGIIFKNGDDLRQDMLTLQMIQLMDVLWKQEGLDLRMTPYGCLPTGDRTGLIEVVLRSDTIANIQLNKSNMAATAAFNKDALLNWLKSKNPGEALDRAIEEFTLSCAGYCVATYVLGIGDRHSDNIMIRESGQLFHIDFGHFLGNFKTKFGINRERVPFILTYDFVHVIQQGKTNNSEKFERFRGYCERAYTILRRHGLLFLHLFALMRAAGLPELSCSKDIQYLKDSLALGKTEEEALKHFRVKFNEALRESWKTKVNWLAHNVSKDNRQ
T1 sequence (P27986 whole entry partner): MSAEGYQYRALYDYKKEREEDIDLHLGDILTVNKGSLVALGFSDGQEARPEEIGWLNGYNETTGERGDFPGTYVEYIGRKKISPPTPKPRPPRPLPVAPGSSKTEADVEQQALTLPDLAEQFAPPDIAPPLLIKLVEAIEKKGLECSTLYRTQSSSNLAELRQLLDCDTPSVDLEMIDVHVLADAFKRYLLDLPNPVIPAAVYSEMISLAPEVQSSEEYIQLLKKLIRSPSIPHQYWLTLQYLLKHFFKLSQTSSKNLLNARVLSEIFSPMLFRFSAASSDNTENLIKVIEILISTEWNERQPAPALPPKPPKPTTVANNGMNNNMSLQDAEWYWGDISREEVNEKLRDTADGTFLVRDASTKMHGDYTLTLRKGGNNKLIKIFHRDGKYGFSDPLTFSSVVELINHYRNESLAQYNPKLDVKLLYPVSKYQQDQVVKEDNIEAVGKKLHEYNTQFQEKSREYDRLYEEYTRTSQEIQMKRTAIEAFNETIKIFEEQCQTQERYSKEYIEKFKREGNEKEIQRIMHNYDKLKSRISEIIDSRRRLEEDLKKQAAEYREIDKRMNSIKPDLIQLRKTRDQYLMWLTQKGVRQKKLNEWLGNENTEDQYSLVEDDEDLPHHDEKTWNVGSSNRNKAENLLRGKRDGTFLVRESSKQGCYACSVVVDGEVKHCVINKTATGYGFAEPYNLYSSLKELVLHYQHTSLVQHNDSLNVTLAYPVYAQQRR
Protocol: (§2) The BTK, PI3K, and/or bromodomain inhibitory activity of a compound of the invention can be determined by methods known to the skilled artisan, or by procuring relevant analysis by a commercial vendor offering such services. […] In vivo, PI3K inhibition can be determined from target tissue biopsies by standard tissue processing in which cells are disrupted and Western Blot analysis is performed to determine the presence or absence of pAKT (substrate of PI3K) relative to a control sample. PI3K inhibition assays and BTK inhibition assays are known in the art and can be procured commercially through vendors such as Reaction Biology (Malvern, Pa.). The activity of a compound of the invention as an inhibitor of a bromodomain-containing protein, such as a BET protein, including BRD2, BRD3, BRD4, and/or BRDT, or an isoform or mutant thereof, may be determined in vitro, in vivo, or in a cell line. In vitro assays include assays that determine inhibition of bromodomain-containing proteins. Alternatively, inhibitor binding may be determined by running a competition experiment where a provided compound is incubated with a bromodomain-containing protein, such as a BET protein bound to known ligands, labeled or unlabeled. In vitro bromodomain inhibition assays can be performed using Alpha Screen Technology (Perkin Elmer Life and Analytical Sciences, Shelton, Conn.). In vivo bromodomain inhibition can be determined indirectly by evaluating the amount of a protein whose gene transcription is influenced or controlled by the bromodomain protein, for example, MYCN protein transcription is controlled by BRD4 (J. E. Delmore et al., Cell 2011, 146, 904-917; A. Puissant, Cancer Discov. 2013, 3, 308-323).
(§3) Compounds of the invention were analyzed for their ability to inhibit target proteins in vitro. PI3K alpha, gamma, and delta inhibition activity was determined by Thermo Fisher Scientific-Biosciences Life Sciences Solutions, Madison, Wis. The bromodomain protein inhibition (binding domain 1 and 2 of BRD4) was determined at Reaction Biology Corp., Malvern, Pa. BTK inhibition was performed by Reaction Biology Corp., Malvern, Pa.
(§4) Additional information regarding the testing procedures is available at each company's website on the internet. The IC50 data was calculated from a 10-point curve by the vendor and is compiled in ranges in the Table 6 below.

BTK (WT) = target: T2, BTK (WT) (Homo sapiens, UniProt Q06187); assay: native BTK inhibition (Reaction Biology Corp.); assay type: biochemical; conditions: 10-point curve; read-out: Target IC50 BTK (WT)
T2 construct: purchased Reaction Biology Corp., Malvern, Pa; (contract assay)
T2 sequence (Q06187 whole entry): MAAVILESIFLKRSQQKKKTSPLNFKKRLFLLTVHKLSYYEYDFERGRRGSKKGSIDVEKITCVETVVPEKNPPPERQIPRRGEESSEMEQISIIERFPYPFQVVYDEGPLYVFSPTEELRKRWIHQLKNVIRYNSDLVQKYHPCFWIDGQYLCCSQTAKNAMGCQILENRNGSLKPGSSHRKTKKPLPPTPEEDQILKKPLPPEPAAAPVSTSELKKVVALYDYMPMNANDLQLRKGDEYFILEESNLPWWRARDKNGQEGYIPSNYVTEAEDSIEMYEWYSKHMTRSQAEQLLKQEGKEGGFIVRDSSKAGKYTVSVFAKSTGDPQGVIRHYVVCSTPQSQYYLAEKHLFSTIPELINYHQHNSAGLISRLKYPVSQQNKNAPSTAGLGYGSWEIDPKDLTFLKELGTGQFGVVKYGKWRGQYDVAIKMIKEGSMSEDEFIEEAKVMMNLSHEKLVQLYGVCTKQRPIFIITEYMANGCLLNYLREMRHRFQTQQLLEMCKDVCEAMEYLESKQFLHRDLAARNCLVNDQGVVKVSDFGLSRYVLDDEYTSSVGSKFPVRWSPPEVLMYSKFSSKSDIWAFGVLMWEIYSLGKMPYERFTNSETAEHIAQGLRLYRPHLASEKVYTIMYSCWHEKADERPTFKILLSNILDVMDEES
Protocol: as §3, §4

[6] = target: T3, BRD4-1 (binding domain 1 of BRD4) (Homo sapiens, UniProt O60885); assay: BRD4 binding domain 1 inhibition (Reaction Biology Corp.); conditions: 10-point curve; read-out: Target IC50 BRD4-1
T3 construct: purchased Reaction Biology Corp., Malvern, Pa; (contract assay)
Protocol: as §2, §3, §4

BTK (C481S) = target: T4, BTK (C481S) (Homo sapiens, UniProt Q06187, C481S); assay: BTK cysteine mutant C481S inhibition (Reaction Biology Corp.); assay type: biochemical; conditions: for Ratio C481S/WT: ratio of the BTK IC50 values, C481S over wild-type
T4 construct: purchased Reaction Biology Corp., Malvern, Pa; (contract assay)
T4 sequence (Q06187 whole entry C481S): as the sequence (Q06187 whole entry) above, with C481S counted along it
Protocol: as §3, §4

PI3K α = target: T5, PI3K α (Homo sapiens, UniProt P42336); assay: PI3K alpha inhibition (Thermo Fisher Scientific); assay type: biochemical; conditions: 10-point curve; read-out: Target IC50 PI3K α
T5 construct: purchased Thermo Fisher Scientific-Biosciences Life Sciences Solutions, Madison, Wis; (contract assay)
T5 sequence (P42336 whole entry): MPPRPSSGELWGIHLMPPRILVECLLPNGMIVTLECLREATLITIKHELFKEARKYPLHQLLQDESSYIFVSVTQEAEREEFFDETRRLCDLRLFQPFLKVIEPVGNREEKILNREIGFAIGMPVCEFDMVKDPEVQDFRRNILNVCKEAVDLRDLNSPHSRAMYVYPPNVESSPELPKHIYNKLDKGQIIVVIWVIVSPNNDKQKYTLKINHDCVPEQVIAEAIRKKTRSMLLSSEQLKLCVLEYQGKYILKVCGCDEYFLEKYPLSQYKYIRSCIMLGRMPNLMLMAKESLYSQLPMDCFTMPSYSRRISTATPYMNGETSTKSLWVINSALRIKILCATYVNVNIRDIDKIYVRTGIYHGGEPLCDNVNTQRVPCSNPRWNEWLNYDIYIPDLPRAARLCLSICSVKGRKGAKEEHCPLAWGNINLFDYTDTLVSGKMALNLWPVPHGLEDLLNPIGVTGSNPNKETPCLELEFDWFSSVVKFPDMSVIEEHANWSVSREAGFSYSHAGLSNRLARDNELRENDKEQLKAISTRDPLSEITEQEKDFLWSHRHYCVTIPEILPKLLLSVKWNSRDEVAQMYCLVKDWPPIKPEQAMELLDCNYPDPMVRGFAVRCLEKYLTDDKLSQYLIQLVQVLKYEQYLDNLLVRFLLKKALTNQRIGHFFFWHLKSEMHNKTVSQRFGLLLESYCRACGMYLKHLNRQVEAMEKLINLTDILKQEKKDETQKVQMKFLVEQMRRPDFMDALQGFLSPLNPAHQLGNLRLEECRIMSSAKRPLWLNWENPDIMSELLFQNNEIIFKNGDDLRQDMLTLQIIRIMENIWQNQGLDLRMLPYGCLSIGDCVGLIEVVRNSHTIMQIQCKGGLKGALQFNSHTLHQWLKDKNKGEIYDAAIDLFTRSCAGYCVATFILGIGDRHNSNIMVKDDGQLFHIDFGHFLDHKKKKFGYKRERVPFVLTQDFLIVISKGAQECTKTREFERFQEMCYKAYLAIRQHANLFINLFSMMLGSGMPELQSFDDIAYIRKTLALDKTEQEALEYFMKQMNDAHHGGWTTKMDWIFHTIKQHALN
T5 sequence (P27986 whole entry partner): as the sequence (P27986 whole entry partner) above
Protocol: as §2, §3, §4

PI3 kinases = conditions: cited from earlier work
[7] = test system: pBTK(Y223) in JeKo-BTK-WT and JeKo-BTK-C481S cells; assay: Western blot for pBTK(Y223) in JeKo-BTK wild-type and JeKo-BTK-C481S cells; assay type: cell-based, human; conditions: 1 hour, different concentrations, FIGS. 6A and 6B
[8] = test system: pBTK in JeKo-BTK-C481S cells; assay: Washout immunoblot for pBTK in JeKo-BTK-C481S cells; assay type: cell-based, human; conditions: 3 hours, washed with PBS, 4 hours recovery, FIG. 6C
[9] = target: T6, BRD4-2 (binding domain 2 of BRD4) (Homo sapiens, UniProt O60885); assay: BRD4 binding domain 2 inhibition (Reaction Biology Corp.); conditions: 10-point curve; read-out: Target IC50 BRD4-2
T6 construct: purchased Reaction Biology Corp., Malvern, Pa; (contract assay)
Protocol: as §2, §3, §4

Mino cells [10] = assay: Percentage cells in apoptosis, Mino; assay type: cell-based, human; conditions: 24-hour
Excerpt: (§5) Additionally apoptosis data was obtained in both JeKo and Mino cells for compound 7.

JeKo cells = assay: Cell cycle analysis in JeKo cells; assay type: cell-based, human; conditions: MCL cells, 5 μM, FIG. 4
PI3K γ = target: T7, PI3K γ (Homo sapiens, UniProt P48736); assay: PI3K gamma inhibition (Thermo Fisher Scientific); assay type: biochemical; conditions: 10-point curve; read-out: Target IC50 PI3K γ
T7 construct: purchased Thermo Fisher Scientific-Biosciences Life Sciences Solutions, Madison, Wis; (contract assay)
T7 sequence (P48736 whole entry): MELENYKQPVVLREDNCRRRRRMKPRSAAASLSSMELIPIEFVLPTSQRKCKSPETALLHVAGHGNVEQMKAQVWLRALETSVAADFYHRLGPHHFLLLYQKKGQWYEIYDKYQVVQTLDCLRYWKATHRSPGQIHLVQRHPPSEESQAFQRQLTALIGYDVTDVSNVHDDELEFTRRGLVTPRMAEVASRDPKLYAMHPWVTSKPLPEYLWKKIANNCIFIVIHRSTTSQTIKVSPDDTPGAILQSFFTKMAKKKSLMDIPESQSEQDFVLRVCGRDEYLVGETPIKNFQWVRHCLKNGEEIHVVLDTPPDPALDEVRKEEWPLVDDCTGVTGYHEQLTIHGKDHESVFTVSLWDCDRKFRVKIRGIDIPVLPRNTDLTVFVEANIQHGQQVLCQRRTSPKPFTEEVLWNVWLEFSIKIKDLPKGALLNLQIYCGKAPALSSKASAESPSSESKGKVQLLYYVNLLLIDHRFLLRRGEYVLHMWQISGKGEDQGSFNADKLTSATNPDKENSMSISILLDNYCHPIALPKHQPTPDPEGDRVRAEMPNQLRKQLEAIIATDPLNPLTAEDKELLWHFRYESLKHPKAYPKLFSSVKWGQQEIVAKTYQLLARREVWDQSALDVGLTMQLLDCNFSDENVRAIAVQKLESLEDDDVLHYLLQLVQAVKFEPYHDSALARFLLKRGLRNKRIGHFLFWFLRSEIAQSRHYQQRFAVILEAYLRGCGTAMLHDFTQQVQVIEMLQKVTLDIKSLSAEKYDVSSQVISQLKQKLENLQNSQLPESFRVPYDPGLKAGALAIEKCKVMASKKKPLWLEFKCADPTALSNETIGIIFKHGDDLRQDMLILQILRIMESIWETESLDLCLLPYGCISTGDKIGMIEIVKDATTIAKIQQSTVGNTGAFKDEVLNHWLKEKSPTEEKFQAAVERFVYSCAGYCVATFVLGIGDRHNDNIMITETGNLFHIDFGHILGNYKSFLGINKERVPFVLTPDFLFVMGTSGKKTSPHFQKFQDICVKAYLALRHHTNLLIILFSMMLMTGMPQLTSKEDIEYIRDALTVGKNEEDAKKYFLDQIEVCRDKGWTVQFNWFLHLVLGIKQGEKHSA
Protocol: as §2, §3, §4

[11] = target: T8, fluorophore-tagged BRD4 fusion protein (Homo sapiens, UniProt O60885); assay: Chromatin-release assay in JeKo cells; assay type: cell-based; conditions: 1 μM, confocal microscopy
T8 construct: expressed in transfected cells; host or cells: JeKo cells
Protocol: A chromatin-release assay was performed on JeKo cells treated with 1 μM Compound 7.

[12] = test system: pAKT(S473) in JeKo-BTK-WT and JeKo-BTK-C481S cells; assay: Western blot for pAKT in JeKo-BTK wild-type and JeKo-BTK-C481S cells; assay type: cell-based, human; conditions: 1 hour, different concentrations, FIGS. 6A and 6B
JeKo and Mino cells = assay: Apoptosis, both mantle cell lymphoma lines (overall statement); assay type: cell-based, human
Excerpt: as §5

JeKo-1 cells [13] = assay: Percentage cells in apoptosis, JeKo-1; assay type: cell-based, human
Excerpt: as §5

SMILES | Potency in reducing mantle cell lymphoma viability as compared to Ibrutinib [1] | IC50 (Mino cells [2]) [nM] | Suppression of pBTK(Y223) [3] | Suppression of pBTK (Tyr223) [3] | IC50 (JeKo-1 cells [4]) [nM] | Suppression of pAKT [5] | Suppression of pAKT (Ser 473) [5] | IC50 (Granta519 cells) [nM] | IC50 (PI3K δ) [nM] | IC50 (BTK (WT)) [nM] | IC50 [6] [nM] | Ratio C481S/WT (BTK (C481S)) | IC50 (PI3K α) [nM] | other results
CS(=O)(=O)CCNCc1ccc(-c2ccc3ncnc(Nc4ccc(OCc5cccc(F)c5)c(Cl)c4)c3c2)o1 [Lapatinib] |  |  |  |  |  |  |  |  |  |  |  |  |  | Breast cancer stem cells in biopsies (breast cancer stem cells): 5 % of cells
C=CC(=O)Nc1cccc(-c2csc3c(=O)cc(N4CCOCC4)oc23)c1 [Compound 1, 1-[m-(5-Morpholino-7-oxo-4-oxa-1-thia-3-indenyl)phenylamino]-2-propen-1-one] | markedly more potent | < 1000 | suppressed | block the catalytic activity | 1000 to 10000 | suppressed | block the catalytic activity | 1000 to 10000 | < 1000 | < 1000 | < 1000 | >81 | < 1000 | pBTK inhibition after washing (pBTK in JeKo cells): not diminished by washing; pAKT after washing (pAKT in JeKo cells): restored after washing
C=CC(=O)Nc1ccc(-c2csc3c(=O)cc(N4CCOCC4)oc23)cc1 [Compound 13] | markedly more potent | < 1000 | suppressed |  | < 1000 | suppressed |  | < 1000 |  |  |  |  |  | 
O=c1cc(N2CCOCC2)oc2c(-c3ccccc3)cccc12 [LY294002, 2-(4-morpholinyl)-8-phenyl-4H-1-benzopyran-4-one] |  |  |  |  |  |  |  |  |  |  |  |  |  | IC50 (PI3 kinases): 1400 nM
C=CC(=O)N1CCOc2ccc(-c3csc4c(=O)cc(N5CCOCC5)oc34)cc21 [Compound 7, 1-[7-(5-Morpholino-7-oxo-4-oxa-1-thia-3-indenyl)-4-oxa-1-aza-2,3-dihydro-1H-naphth-1-yl]-2-propen-1-one] | markedly more potent | < 1000 |  | block the catalytic activity | < 1000 |  | block the catalytic activity | 1000 to 10000 | < 1000 | < 1000 | < 1000 | 728 | < 1000 | Inhibition of pBTK [7]: inhibit pBTK; pBTK suppression activity upon washout [8]: irreversible; IC50 [9]: < 1000 nM; Percentage cells in apoptosis (Mino cells [10]; Early): +++ (between 10% and 30%); Percentage cells in apoptosis (Mino cells [10]; Late): ++ (between 5% and 10%); Percentage cells in apoptosis (Mino cells [10]; Total): +++ (between 10% and 30%); Cell cycle effect (JeKo cells): Cell Cycle Arrest; IC50 (PI3K γ): < 1000 nM; Release of BRD4 from chromatin [11]: released a fluorophore-tagged BRD4 fusion protein from chromatin; IC50 (BTK (C481S); 10-point curve, read-out: Target IC50 BTK (C481S)): 10000 to 30000 nM; Inhibition of pAKT [12]: inhibits pAKT and in a dose dependent manner; Apoptosis compared with exposure to Ibrutinib (JeKo and Mino cells): much more apoptosis; Percentage cells in apoptosis (JeKo-1 cells [13]; JeKo-1, 24-hour, Early): + (less than 5%); Percentage cells in apoptosis (JeKo-1 cells [13]; JeKo-1, 24-hour, Late): +++ (between 10% and 30%); Percentage cells in apoptosis (JeKo-1 cells [13]; JeKo-1, 24-hour, Total): +++ (between 10% and 30%); Percentage cells in apoptosis (JeKo-1 cells [13]; JeKo-1, 48-hour, Early): +++ (between 10% and 30%); Percentage cells in apoptosis (JeKo-1 cells [13]; JeKo-1, 48-hour, Late): +++ (between 10% and 30%); Percentage cells in apoptosis (JeKo-1 cells [13]; JeKo-1, 48-hour, Total): ++++ (between 30% and 50%)
